{"source": "patent US20230233606A1", "about": "“Cell” (AUTOLUS LIMITED, priority 2019, published 2023)", "type_in_all_cases": "cell-based", "key": {"SupT1 CD22 High [1]": {"system": "SupT1 CD22 High", "assay": "FBK assay with or without 3-IB-PP1, Example 4, SupT1 CD22 High", "conditions": "3-IB-PP1 10 uM; T cells expressing CSK^AS; CD22 High (20,262 molecules per cell); E:T 1:4; 72 h", "method": "(§1) Analysis by flow cytometry was carried out at 72 h post co-culture set up. Each condition was tested with a minimum of 6 donors (n=6), with median indicated. All data was normalised to NT T cells. T cells were co-cultured with SupT1 NT (left), SupT1 CD22 High (middle) or SupT1 CD22 Low (right) target cells at an E:T ratio of 1:4. Statistics were run using a paired t-test. *P<0.05, **P<0.01, ***P<0.001, ****P<0.0001.\n(§2) PBMCs were either left untransduced or transduced with one of the constructs. The capacity of the CAR-T cells to kill target cells expressing CD22 was investigated using a FACS-based killing (FBK) assay. […] Two different types of CD22-expressing SupT1 target cells were generated, one expressing CD22 at a low density (average number of CD22 molecules per cell: 3,309) and one expressing CD22 at a high density (average number of CD22 molecules per cell: 20,262)."}, "SupT1 CD22 Low [2]": {"system": "SupT1 CD22 Low", "assay": "FBK assay with or without 3-IB-PP1, Example 4, SupT1 CD22 Low", "conditions": "3-IB-PP1 10 uM; T cells expressing CSK^AS; CD22 Low (3,309 molecules per cell); E:T 1:4; 72 h", "method": "as §1, §2"}, "SupT1 CD22 High [3]": {"system": "SupT1 CD22 High", "assay": "IL-2 release ELISA, Example 4, SupT1 CD22 High", "conditions": "3-IB-PP1 10 uM, CSK^AS expressing T cells, E:T 1:4, 72 h", "method": "(§3) Supernatant taken at 72 h post co-culture set up was analysed by ELISA for the presence of IL-2. Each condition was tested with a minimum of 6 donors (n=6), with median indicated. T cells were co-cultured with SupT1 NT (left), SupT1 CD22 High (middle) or SupT1 CD22 Low (right) target cells at an E:T ratio of 1:4.\n(§4) In order to investigate cytokine release, supernatant was taken at 72 h post co-culture set up and analysed by ELISA for the presence of IL-2 and IFN-γ."}, "SupT1 CD22 Low [4]": {"system": "SupT1 CD22 Low", "assay": "IL-2 release ELISA, Example 4, SupT1 CD22 Low", "conditions": "3-IB-PP1 10 uM, CSK^AS expressing T cells, E:T 1:4, 72 h", "method": "as §3, §4"}, "SupT1 CD22 High [5]": {"system": "SupT1 CD22 High", "assay": "IFN-γ release ELISA, Example 4, SupT1 CD22 High", "conditions": "3-IB-PP1 10 uM, T cells expressing CSK^AS, E:T 1:4, 72 h", "method": "as §3, with “IFN-γ.” for “IL-2.”\nas §4"}, "SupT1 CD22 Low [6]": {"system": "SupT1 CD22 Low", "assay": "IFN-γ release ELISA, Example 4, SupT1 CD22 Low", "conditions": "3-IB-PP1 10 uM, T cells expressing CSK^AS, E:T 1:4, 72 h", "method": "as §3, with “IFN-γ.” for “IL-2.”\nas §4"}, "SupT1 CD22 High [7]": {"system": "SupT1 CD22 High", "assay": "FBK assay with increasing concentrations of 3-IB-PP1, Example 5", "conditions": "3-IB-PP1 0.156 uM-10 uM; T cells expressing CSK^AS; CD22 High (6,309 molecules per cell); E:T 1:4; 72 h", "method": "(§5) Analysis by flow cytometry was carried out at 72 h post co-culture set up. Each condition was tested with a minimum of 3 donors (n=3), with median indicated. All data was normalised to NT T cells. T cells were co-cultured with SupT1 NT (left) or SupT1 CD22 High (right) target cells at an E:T ratio of 1:4.\n(§6) The co-culture described in Example 4 was repeated, but this time with increasing concentrations of 3-IB-PP1 (0.156 uM-10 uM)."}, "SupT1 CD22 High [8]": {"system": "SupT1 CD22 High", "assay": "IFN-γ release with increasing concentrations of 3-IB-PP1, Example 5", "conditions": "3-IB-PP1 0.156 uM-10 uM, T cells expressing CSK^AS, E:T 1:4, 72 h", "method": "as §5, §6"}}}
{"smiles": "CC(C)(C)n1nc(Cc2cccc(I)c2)c2c(N)ncnc21", "note": "[3-IB-PP1, 3-iodo-benzyl-PP1]", "values": [{"measurement": "cytotoxicity", "setting": "SupT1 CD22 High [1]", "result": "significantly increased compared to the media condition"}, {"measurement": "cytotoxicity", "setting": "SupT1 CD22 Low [2]", "result": "significantly increased compared to the media condition"}, {"measurement": "IL-2 release", "setting": "SupT1 CD22 High [3]", "result": "increased levels of IL-2"}, {"measurement": "IL-2 release", "setting": "SupT1 CD22 Low [4]", "result": "increased levels of IL-2"}, {"measurement": "IFN-γ release", "setting": "SupT1 CD22 High [5]", "result": "significantly higher IFN-γ concentrations compared to the media condition"}, {"measurement": "IFN-γ release", "setting": "SupT1 CD22 Low [6]", "result": "significantly higher IFN-γ concentrations compared to the media condition"}, {"measurement": "cytotoxicity", "setting": "SupT1 CD22 High [7]", "result": "increased in a dose-dependent manner"}, {"measurement": "IFN-γ production", "setting": "SupT1 CD22 High [8]", "result": "increased in a dose-dependent manner"}]}
